Measurements from US10966430B2, “Natural fungicide composition” (GRIFFITH FOODS INTERNATIONAL INC., priority 2013, dated 2021).

Test system: Mycosphaerella fijiensis
Experiment: Second field trials: in vitro fungicidal activity, length of germinated ascospores on water-agar
Assay type: cell-based
Conditions: for % Inhibition: ascospores incubated 48 hours at 26° C. in darkness
Procedure: Additional field trials were conducted to evaluate the in vitro fungicidal activity of 14 composition embodiments in the treatment of Mycosphaerella fijiensis.
Culture media comprising 2% water-agar (Difco® Bacto® Agar) and 0.001, 0.01, 0.1, 1, 10, 100, and 1,000 mg/L of the active substance were each prepared in a petri dish for each composition. A separate culture media without any active substance was used as a control. For comparative fungicides F-11-01 to F-11-12 listed in Table 1 below, the active substance was the same as the composition as a whole.
Ascospores of Mycosphaerella fijiensis obtained from a banana plantation that had not been treated with any fungicides were discharged into each petri dish. After discharging the ascospores of Mycosphaerella fijiensis, each sample was incubated for 48 hours at 26° C. in complete darkness. After 48 hours of incubation, the length of 100 germinated ascospores at each concentration was measured.
After collecting the data, the average length of the germinated ascospores was calculated for each concentration. The average inhibition percentage was calculated for each sample fungicide at each concentration using the following formula:
where: • Lcontrol=average length of germinated ascospores of control sample • Lsample=average length of germinated ascospores of sample fungicide.
The average inhibition percentage was used to calculate EC50 for each sample fungicide. EC50 is the half maximal effective concentration, which refers to the concentration of sample fungicide that induces a response halfway between the baseline and maximum after a specified exposure time.

Polysorbate 80 [Fungicide F-11-09]
% Inhibition (0.001 mg/L): 37.98% | % Inhibition (0.01 mg/L): 42.6% | % Inhibition (0.1 mg/L): 11.91% | % Inhibition (1 mg/L): 31.87% | % Inhibition (10 mg/L): 52.04% | % Inhibition (100 mg/L): 46.24% | Natural Log (natural log belonging to the EC50 column): 10.45
